Reference: patent publication US5227488A, “Aza spiro decane and use thereof in treating CNS disorders” (Novo Nordisk A/S, priority 1989, dated 1993)
Structures can show the parent of a compound that is named as a salt.

Assays:
[1] = target: T1, 5-HT1A (Rattus norvegicus, UniProt P19327); experiment: Receptor binding in vitro, 5-HT1A (3H-8OH-DPAT displacement); details: ligand 3H-8OH-DPAT 2 nM; rat frontal cortex, hippocampus
T1 construct: from tissue; host or cells: rat brain: frontal cortex, hippocampus
T1 sequence (P19327 1-422): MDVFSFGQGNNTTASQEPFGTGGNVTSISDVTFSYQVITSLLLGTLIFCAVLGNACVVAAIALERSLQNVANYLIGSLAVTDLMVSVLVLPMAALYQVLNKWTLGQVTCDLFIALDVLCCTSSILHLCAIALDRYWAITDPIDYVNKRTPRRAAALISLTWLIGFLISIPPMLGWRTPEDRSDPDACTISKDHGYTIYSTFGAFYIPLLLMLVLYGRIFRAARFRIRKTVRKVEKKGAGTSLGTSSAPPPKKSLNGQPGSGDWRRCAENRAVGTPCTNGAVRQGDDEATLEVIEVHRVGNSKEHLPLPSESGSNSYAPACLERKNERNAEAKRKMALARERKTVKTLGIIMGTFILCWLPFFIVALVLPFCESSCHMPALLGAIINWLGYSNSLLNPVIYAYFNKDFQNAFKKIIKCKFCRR
Method: (§1) Compounds of the general formula (I) were tested for binding to 5-HT receptors and compared with known ligands by the following procedure:
(§2) Rat brain tissue (as specified in the table hereinafter) was homogenized using a Polytron homogenizer. The final pellet was resuspended in 125 vol (tissue wet weight) of buffer.
(§3) In all assays incubation was carried out for 10 min at 37° C.
(§4) Detailed conditions for the receptor binding assay in vitro are tabulated below.

[2] = target: T2, 5-HT1B (Rattus norvegicus, UniProt P28564); experiment: Receptor binding in vitro, 5-HT1B (3H-5-HT displacement, with 50 nM 8-OH-DPAT)
T2 construct: from tissue; host or cells: rat brain: frontal cortex, hippocampus
Method: as §1, §2, §3
Labelling of the 5-HT1B receptor was complicated by the fact that the available ligand ^3 H-5-HT is nonselective.
as §4

[3] = target: T3, 5-HT2 (Rattus norvegicus, UniProt P14842); experiment: Receptor binding in vitro, 5-HT2 (3H-ketanserin displacement)
T3 construct: from tissue; host or cells: rat brain: frontal cortex, striatum
Method: as §1, §2, §3, §4

[4] = target: Adenylatcyclase; experiment: Adenylatcyclase; type: biochemical
[5] = test system: 5-HT1A receptors; details: background; cited from earlier work
[6] = test system: 5-HT1 recognition sites; details: background; Ann. Reports Med. Chem. 21 (1986), 42-43; cited from earlier work
[7] = test system: 5-HT2 receptor subtype; details: background; cited from earlier work

T2 sequence (P28564 whole entry): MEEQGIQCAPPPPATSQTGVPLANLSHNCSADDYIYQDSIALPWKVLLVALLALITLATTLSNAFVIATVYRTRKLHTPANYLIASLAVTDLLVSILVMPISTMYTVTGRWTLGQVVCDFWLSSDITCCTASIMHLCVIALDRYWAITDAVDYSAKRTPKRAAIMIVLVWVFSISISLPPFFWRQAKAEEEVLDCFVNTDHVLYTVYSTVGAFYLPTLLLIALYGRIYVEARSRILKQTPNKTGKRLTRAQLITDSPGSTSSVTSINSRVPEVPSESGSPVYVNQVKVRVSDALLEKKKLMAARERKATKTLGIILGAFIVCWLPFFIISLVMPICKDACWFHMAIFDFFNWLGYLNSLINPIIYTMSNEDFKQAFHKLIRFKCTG
T3 sequence (P14842 whole entry): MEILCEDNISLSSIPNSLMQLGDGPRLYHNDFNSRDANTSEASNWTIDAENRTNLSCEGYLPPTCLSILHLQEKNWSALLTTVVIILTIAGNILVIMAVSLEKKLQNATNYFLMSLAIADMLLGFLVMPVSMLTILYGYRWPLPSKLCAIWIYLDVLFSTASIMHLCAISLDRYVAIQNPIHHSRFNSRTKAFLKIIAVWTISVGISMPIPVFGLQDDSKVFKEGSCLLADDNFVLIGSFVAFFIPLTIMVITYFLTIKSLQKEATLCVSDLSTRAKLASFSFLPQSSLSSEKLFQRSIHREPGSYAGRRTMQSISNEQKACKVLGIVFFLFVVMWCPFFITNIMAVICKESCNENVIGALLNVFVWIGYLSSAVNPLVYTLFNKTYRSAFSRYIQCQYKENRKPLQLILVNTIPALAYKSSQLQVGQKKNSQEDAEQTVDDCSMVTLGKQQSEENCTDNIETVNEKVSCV

| Compound | IC50 [1] [nM] | IC50 [2] [nM] | IC50 [3] [nM] | IC50 [4] [nM] | affinity for 5-HT1A receptors (in words) [5] | affinity for 5-HT1 recognition sites (in words) [6] | discrimination between the 5-HT1A and 5-HT1B receptor subtypes (in words) [6] | affinity for the 5-HT2 receptor subtype (in words) [7] |
| --- | --- | --- | --- | --- | --- | --- | --- | --- |
| O=C1CC2(CCCC2)CC(=O)N1CCCCNCCSc1c[nH]c2ccccc12 [Example 3, 1-(4-(7,9-Dioxo-8-azaspiro[4,5]decan-8-yl)butyl-1-amino)2-(3-indolylthio)-ethane, oxalate] | 40 | 233 | 613 | 10 | – | – | – | – |
| O=C1c2ccccc2S(=O)(=O)N1CCCCNCCSc1c[nH]c2ccccc12 [Example 6, 1-(4-(o-Sulfobenzimido)butyl-1-amino)-2-(3-indolylthio)ethane, oxalate] | 34 | > 1000 | > 1000 | 20 | – | – | – | – |
| COc1ccc2[nH]cc(SCCNCCCCN3C(=O)CC4(CCCC4)CC3=O)c2c1 [Example 8, 1-(4-(7,9-Dioxo-8-azaspiro[4,5]decan-8-yl)butyl-1-amino)-2-(5-methoxy-3-indolylthio)-ethane, oxalate] | 33 | > 1000 | > 1000 | 30 | – | – | – | – |
| CCCN(CCC)C1CCc2cccc(O)c2C1 (stereo not drawn) [Example 8-OH-DPAT, 8-hydroxy-2-(di-n-propylamino)tetralin, reference compound] | – | – | > 1000 | 80 | binds with high affinity | – | – | – |
| COc1ccc2[nH]cc(SCCNCCCCN3C(=O)c4ccccc4C3=O)c2c1 [Example 9, 1-(4-Phthalimidobutyl-1-amino)-2-(5-methoxy-3-indolylthio)-ethane, oxalate] | 20 | 156 | > 1000 | 140 | – | – | – | – |
| COc1ccc2[nH]cc(SCCNCCCCN3C(=O)C4C5C=CC(C6CC56)C4C3=O)c2c1 (stereo not drawn) [Example 10] | 8 | > 1000 | > 1000 | 23 | – | – | – | – |
| COc1ccc2[nH]cc(SCCNCCCCN3C(=O)C4CC=CCC4C3=O)c2c1 (stereo not drawn) [Example 12, 1-(4-(Cis-4-cyclohexen-1,2-dicarboximido)butyl-1-amino)-2-(5-methoxy-3-indolylthio)-ethane, oxalate] | 17 | > 1000 | > 1000 | 240 | – | – | – | – |
| COc1ccc2[nH]cc(OCCNCCCCN3C(=O)CC4(CCCC4)CC3=O)c2c1 [Example 23, 1-(4-(7,9-Dioxo-8-azaspiro[4,5]decan-8-yl)butyl-1-amino)-2-(5-methoxy-3-indolyloxy)-ethane, oxalate] | 0.6 | > 1000 | > 1000 | 1.8 | – | – | – | – |
| COc1ccc2[nH]cc(OCCNCCCCN3C(=O)C4C5C=CC(C6C=CC65)C4C3=O)c2c1 (stereo not drawn) [Example 24, 1-(4-(1,3-Dioxo-4,7-etheno-1,3,3a,4,4a,6a,7,7a-octahydro-2H-cyclobut[f]isoindol-2-yl)butyl-1-amino)-2-(5-methoxy-3-indolyloxy)-ethane, oxalate] | 6.9 | > 1000 | > 1000 | 4 | – | – | – | – |
| COc1ccc2[nH]cc(C3=CCNCC3)c2c1 [RU 24969] | – | – | – | – | – | high affinity | only limited capacity to discriminate | – |
| O=C1CC2(CCCC2)CC(=O)N1CCCCN1CCN(c2ncccn2)CC1 [buspirone, reference compound] | – | – | – | 125 | – | – | – | – |
| CC1(C)CC(=O)N(CCCCN2CCN(c3ncccn3)CC2)C(=O)C1 [gepirone, reference compound] | – | – | > 1000 | 1000 | – | – | – | – |
| O=C1c2ccccc2S(=O)(=O)N1CCCCN1CCN(c2ncccn2)CC1 [ipsapirone, reference compound] | 25 | > 1000 | > 1000 | 850 | – | – | – | – |
| O=C(c1ccc(F)cc1)C1CCN(CCn2c(=O)[nH]c3ccccc3c2=O)CC1 [ketanserin] | – | – | – | – | – | – | – | high affinity |
